The values that follow come from PubChem BioAssay AID248 (DTP/NCI, 2004).

The subject of the experiment is L1210 leukemia ip in BDF1 mice, survival T/C. Briefly: NCI In Vivo Anticancer Drug Screen. Data for tumor model L1210 Leukemia (intraperitoneal) in B6D2F1 (BDF1) mice. To be noted: higher = longer survival. Summed up:
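Survival endpoint. Drug-treated group vs vehicle group, expressed as T divided by C. Tumor passaged by transplantation.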

The mark [1] stands for this setting: endpoint: mean survival time, dose: 100.0 mg/kg/injection, schedule: Q01DX001 (ip), vehicle: saline.
The mark [2] stands for this setting: endpoint: mean survival time, dose: 100.0 mg/kg/injection, schedule: Q01DX001 (ip), vehicle: carboxymethylcellulose (CMC).
Where [3] appears, read: endpoint: mean survival time, dose: 200.0 mg/kg/injection, schedule: Q01DX001 (ip), vehicle: carboxymethylcellulose (CMC).
[4] abbreviates: endpoint: mean survival time, dose: 400.0 mg/kg/injection, schedule: Q01DX001 (ip), vehicle: carboxymethylcellulose (CMC).

“And” between values parts separate entries of the source, which are not always exact repeats. Equal values may be shown once. Toxic doses and inconclusive results are not listed.

Regarding `C1CCCCCC(C2CCCCCCCCCCC2)CCCCC1`, the T/C (endpoint: mean survival time, dose: 25.0 mg/kg/injection, schedule: Q01DX009 (ip), vehicle: acetone) is 94 % of control; the T/C (endpoint: mean survival time, dose: 25.0 mg/kg/injection, schedule: Q04DX003 (ip), vehicle: saline) is 94 % of control; the T/C (endpoint: mean survival time, dose: 50.0 mg/kg/injection, schedule: Q01DX009 (ip), vehicle: acetone) was 93 % of control; the T/C (endpoint: mean survival time, dose: 50.0 mg/kg/injection, schedule: Q04DX003 (ip), vehicle: saline) is 92 % of control; the T/C under setting [1] was 92 % of control; the T/C (endpoint: mean survival time, dose: 100.0 mg/kg/injection, schedule: Q01DX009 (ip), vehicle: acetone) was 98 % of control. The T/C reads like this: (endpoint: mean survival time, dose: 100.0 mg/kg/injection, schedule: Q04DX003 (ip), vehicle: saline) 92 % of control; (endpoint: mean survival time, dose: 150.0 mg/kg/injection, schedule: Q01DX009 (ip), vehicle: saline) 90 % of control; (endpoint: mean survival time, dose: 225.0 mg/kg/injection, schedule: Q01DX009 (ip), vehicle: saline) 88 % of control; (endpoint: mean survival time, dose: 335.0 mg/kg/injection, schedule: Q01DX009 (ip), vehicle: saline) 93 % of control.

As for `O=S(=O)(n1ccnc1)C(F)(F)F`, the T/C is 102 % of control (endpoint: mean survival time, dose: 5.0 mg/kg/injection, schedule: Q01DX001 (ip), vehicle: saline); 98 % of control (endpoint: mean survival time, dose: 10.0 mg/kg/injection, schedule: Q01DX001 (ip), vehicle: saline); 102 % of control (endpoint: mean survival time, dose: 20.0 mg/kg/injection, schedule: Q01DX001 (ip), vehicle: saline); 102 % of control (endpoint: mean survival time, dose: 40.0 mg/kg/injection, schedule: Q01DX001 (ip), vehicle: saline).

Consider `CC1C(=O)C2CCCCC2C1=O` (stereo not drawn), for which the T/C reads like this: under setting [1], 96 % of control; (endpoint: mean survival time, dose: 200.0 mg/kg/injection, schedule: Q01DX001 (ip), vehicle: saline) 96 % of control; (endpoint: mean survival time, dose: 400.0 mg/kg/injection, schedule: Q01DX001 (ip), vehicle: saline) 100 % of control.

On to `O=C(NO)c1ccccc1O`, for which the T/C runs as follows: (endpoint: mean survival time, dose: 85.0 mg/kg/injection, schedule: Q03HX032 (ip), vehicle: other) 97 % of control; (endpoint: mean survival time, dose: 100.0 mg/kg/injection, schedule: Q01DX009 (ip), vehicle: Klucel (hydroxypropylcellulose) (HPC)) 104 % of control; (endpoint: mean survival time, dose: 100.0 mg/kg/injection, schedule: Q04DX002 (ip), vehicle: carboxymethylcellulose (CMC)) 98 % of control and 108 % of control; (endpoint: mean survival time, dose: 100.0 mg/kg/injection, schedule: Q04DX003 (ip), vehicle: carboxymethylcellulose (CMC)) 101 % of control and 118 % of control; (endpoint: mean survival time, dose: 130.0 mg/kg/injection, schedule: Q03HX032 (ip), vehicle: other) 102 % of control; (endpoint: mean survival time, dose: 200.0 mg/kg/injection, schedule: Q01DX009 (ip), vehicle: Klucel (hydroxypropylcellulose) (HPC)) 112 % of control. Also, the T/C by setting is: (endpoint: mean survival time, dose: 200.0 mg/kg/injection, schedule: Q01DX015 (ip), vehicle: other) 105 % of control; (endpoint: mean survival time, dose: 200.0 mg/kg/injection, schedule: Q03HX032 (ip), vehicle: other) 105 % of control; (endpoint: mean survival time, dose: 200.0 mg/kg/injection, schedule: Q04DX002 (ip), vehicle: carboxymethylcellulose (CMC)) 98 % of control and 108 % of control; (endpoint: mean survival time, dose: 200.0 mg/kg/injection, schedule: Q04DX003 (ip), vehicle: carboxymethylcellulose (CMC)) 99 % of control and 103 % of control; (endpoint: mean survival time, dose: 266.0 mg/kg/injection, schedule: Q01DX009 (ip), vehicle: saline) 97 % of control; (endpoint: mean survival time, dose: 300.0 mg/kg/injection, schedule: Q01DX015 (ip), vehicle: other) 93 % of control. Also, the T/C is 121 % of control (endpoint: mean survival time, dose: 300.0 mg/kg/injection, schedule: Q03HX032 (ip), vehicle: other); 105 % of control (endpoint: mean survival time, dose: 400.0 mg/kg/injection, schedule: Q01DX009 (ip), vehicle: Klucel (hydroxypropylcellulose) (HPC)); 97 % of control (endpoint: mean survival time, dose: 400.0 mg/kg/injection, schedule: Q01DX009 (ip), vehicle: saline); 96 % of control and 104 % of control (endpoint: mean survival time, dose: 400.0 mg/kg/injection, schedule: Q04DX002 (ip), vehicle: carboxymethylcellulose (CMC)); 105 % of control (endpoint: mean survival time, dose: 400.0 mg/kg/injection, schedule: Q04DX003 (ip), vehicle: carboxymethylcellulose (CMC)); 108 % of control (endpoint: mean survival time, dose: 450.0 mg/kg/injection, schedule: Q01DX015 (ip), vehicle: other). In addition, the T/C is 208 % of control (endpoint: mean survival time, dose: 450.0 mg/kg/injection, schedule: Q03HX032 (ip), vehicle: other); 104 % of control (endpoint: mean survival time, dose: 600.0 mg/kg/injection, schedule: Q01DX009 (ip), vehicle: saline); 86 % of control (endpoint: mean survival time, dose: 670.0 mg/kg/injection, schedule: Q01DX015 (ip), vehicle: other); 104 % of control (endpoint: mean survival time, dose: 900.0 mg/kg/injection, schedule: Q01DX009 (ip), vehicle: saline).

In the case of `CNC(C)C1CCC2C3CC=C4CC(O)CCC4(C)C3CCC12C` (stereo not drawn), the T/C was 104 % of control (endpoint: mean survival time, dose: 100.0 mg/kg/injection, schedule: Q01DX001 (sc), vehicle: steriod suspending solution); 87 % of control (endpoint: mean survival time, dose: 200.0 mg/kg/injection, schedule: Q01DX001 (sc), vehicle: steriod suspending solution); 94 % of control (endpoint: mean survival time, dose: 400.0 mg/kg/injection, schedule: Q01DX001 (sc), vehicle: steriod suspending solution).

Turning to `O=S1(=O)CC2C1C1(Cl)C(Cl)=C(Cl)C2(Cl)C1(Cl)Cl` (stereo not drawn), the T/C reads like this: (endpoint: mean survival time, dose: 50.0 mg/kg/injection, schedule: Q01DX001 (ip), vehicle: carboxymethylcellulose (CMC)) 100 % of control; under setting [2], 91 % of control; under setting [3], 96 % of control; under setting [4], 96 % of control.

For `O=S(N=C(C(F)(F)F)C(F)(F)F)C(F)(F)F` (stereo not drawn), the T/C is, setting by setting: (endpoint: mean survival time, dose: 50.0 mg/kg/injection, schedule: Q01DX001 (ip), vehicle: Klucel (hydroxypropylcellulose) (HPC)) 92 % of control; (endpoint: mean survival time, dose: 100.0 mg/kg/injection, schedule: Q01DX001 (ip), vehicle: Klucel (hydroxypropylcellulose) (HPC)) 106 % of control.

For the molecule `CN=C(NC#N)NCCSCc1nc[nH]c1C`, the T/C (endpoint: median survival time, dose: 12.0 mg/kg/injection, schedule: Q01DX009 (ip), vehicle: Klucel (hydroxypropylcellulose) (HPC)) was 100 % of control; the T/C (endpoint: median survival time, dose: 25.0 mg/kg/injection, schedule: Q01DX009 (ip), vehicle: Klucel (hydroxypropylcellulose) (HPC)) was 101 % of control; the T/C (endpoint: median survival time, dose: 50.0 mg/kg/injection, schedule: Q01DX009 (ip), vehicle: Klucel (hydroxypropylcellulose) (HPC)) was 106 % of control; the T/C (endpoint: median survival time, dose: 100.0 mg/kg/injection, schedule: Q01DX009 (ip), vehicle: Klucel (hydroxypropylcellulose) (HPC)) was 106 % of control; the T/C (endpoint: median survival time, dose: 200.0 mg/kg/injection, schedule: Q01DX009 (ip), vehicle: Klucel (hydroxypropylcellulose) (HPC)) was 108 % of control; the T/C (endpoint: median survival time, dose: 400.0 mg/kg/injection, schedule: Q01DX009 (ip), vehicle: Klucel (hydroxypropylcellulose) (HPC)) was 104 % of control.

Take `CCC[CH2][Tl]([Br])[CH2]CCC`: the T/C by setting is: (endpoint: mean survival time, dose: 100.0 mg/kg/injection, schedule: Q04DX002 (ip), vehicle: saline with Tween-80) 98 % of control; (endpoint: mean survival time, dose: 200.0 mg/kg/injection, schedule: Q04DX002 (ip), vehicle: saline with Tween-80) 103 % of control; (endpoint: mean survival time, dose: 400.0 mg/kg/injection, schedule: Q04DX002 (ip), vehicle: saline with Tween-80) 106 % of control.

As for `CC1(C)OC(C(O)COC(=O)c2ccc([N+](=O)[O-])cc2)C(C(SCc2ccccc2)SCc2ccccc2)O1` (stereo not drawn), the T/C is, setting by setting: under setting [2], 93 % of control; under setting [3], 89 % of control; under setting [4], 95 % of control.

As for `O=C1C=C(c2ccccc2)S(=O)(=O)C(c2ccccc2)=C1`, the T/C (endpoint: mean survival time, dose: 37.5 mg/kg/injection, schedule: Q04DX002 (ip), vehicle: Klucel (hydroxypropylcellulose) (HPC)) was 97 % of control; the T/C (endpoint: mean survival time, dose: 75.0 mg/kg/injection, schedule: Q01DX001 (ip), vehicle: carboxymethylcellulose (CMC)) was 124 % of control; the T/C (endpoint: mean survival time, dose: 75.0 mg/kg/injection, schedule: Q04DX002 (ip), vehicle: Klucel (hydroxypropylcellulose) (HPC)) was 108 % of control; the T/C (endpoint: mean survival time, dose: 150.0 mg/kg/injection, schedule: Q04DX002 (ip), vehicle: Klucel (hydroxypropylcellulose) (HPC)) was 101 % of control.

With `C=CCC(CO)(c1ccccc1)c1ccccc1`, the T/C runs as follows: (endpoint: mean survival time, dose: 50.0 mg/kg/injection, schedule: Q01DX009 (ip), vehicle: saline with Tween-80) 97 % of control; (endpoint: mean survival time, dose: 100.0 mg/kg/injection, schedule: Q01DX009 (ip), vehicle: saline with Tween-80) 87 % of control; (endpoint: mean survival time, dose: 200.0 mg/kg/injection, schedule: Q01DX009 (ip), vehicle: saline with Tween-80) 97 % of control.

On to `CCSc1nc(N)c(Br)c(Sc2nc(N)nc3nc[nH]c23)n1`, for which the T/C (endpoint: mean survival time, dose: 100.0 mg/kg/injection, schedule: Q01DX Z (ip), vehicle: methylcellulose (MC)) is 98 % of control.
